From patent US11034650B2, “Compounds useful for treating a Mannheimia haemolytica or Histophilus somni infection” (Intervet Inc., priority 2016, dated 2021) come the findings set out here.

Values after ≈ are worked out from the molar mass of the structure shown.

For the first assay, the system named is Mannheimia haemolytica MH 6357 (M7/2, reference strain, cattle infection strain). Kind of assay: MIC, broth-microdilution (CLSI VET01-A4), strain MH 6357. Particulars: Mannheimia haemolytica strain MH 6357, broth-microdilution; unit assumed. Format: cell-based. Summed up: (§1)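 Doubling dilution series in trays; visual read, MIC = lowest conc. with no visible turbidity; interpretation per CLSI VET01-S3.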
In turn, `CC(C)([C@H](NC(=O)c1ccc(C#Cc2ccc(CNCc3cccnc3)s2)cc1)C(=O)NO)S(C)(=O)=O` [C.319] had an MIC MH 6357 of 0.2 mg/L (≈ 0.37 µM).

Turning to `COc1ccc(CNCc2ccc(C#Cc3ccc(C(=O)N[C@H](C(=O)NO)C(C)(C)SC)cc3)cn2)cc1` [Compound 340], the MIC MH 6357 came out at 0.8 mg/L (≈ 1.5 µM).

For `O=C(N[C@@H](CO)C(=O)NO)c1ccc(C#Cc2ccc(CNC3CCC3)cc2)cc1` [Compound 147], the MIC MH 6357 is 3.1 mg/L (≈ 7.61 µM).

Compound `COCCNCc1ccc(C#Cc2ccc(C(=O)N[C@H](C(=O)NO)C(C)(C)SC)cc2)cc1` [C.237] had an MIC MH 6357 of 1.6 mg/L (≈ 3.41 µM).

The subject of a further assay is Mannheimia haemolytica MH 6374 (ATCC 33396, reference strain). Kind of assay: MIC, broth-microdilution (CLSI VET01-A4), strain MH 6374. Format: cell-based. The following applies: Mannheimia haemolytica strain MH 6374, broth-microdilution; unit assumed. In short, it runs like this:
as §1
In general terms: Broth dilution looks for growth in wells or tubes with falling amounts of substance.
Regarding `CC(C)([C@H](NC(=O)c1ccc(C#Cc2ccc(CNCc3cccnc3)s2)cc1)C(=O)NO)S(C)(=O)=O` [C.319], the MIC MH 6374 worked out at 0.2 mg/L (≈ 0.37 µM).

Compound `COc1ccc(CNCc2ccc(C#Cc3ccc(C(=O)N[C@H](C(=O)NO)C(C)(C)SC)cc3)cn2)cc1` [Compound 340] showed an MIC MH 6374 of 1.6 mg/L (≈ 3 µM).

For `O=C(N[C@@H](CO)C(=O)NO)c1ccc(C#Cc2ccc(CNC3CCC3)cc2)cc1` [Compound 147], the MIC MH 6374 was 6.3 mg/L (≈ 15.5 µM).

`COCCNCc1ccc(C#Cc2ccc(C(=O)N[C@H](C(=O)NO)C(C)(C)SC)cc2)cc1` [C.237] displayed an MIC MH 6374 of 1.6 mg/L (≈ 3.41 µM).

A further assay deals with Mannheimia haemolytica MH 10720 (154, BRD field isolate). Briefly: MIC, broth-microdilution (CLSI VET01-A4), strain MH 10720. Format: cell-based. The following applies: Mannheimia haemolytica strain MH 10720, broth-microdilution; unit assumed. In short, it runs like this:
as §1
The compound `CC(C)([C@H](NC(=O)c1ccc(C#Cc2ccc(CNCc3cccnc3)s2)cc1)C(=O)NO)S(C)(=O)=O` [C.319] registered an MIC MH 10720 of no more than 0.1 mg/L.

As to `COc1ccc(CNCc2ccc(C#Cc3ccc(C(=O)N[C@H](C(=O)NO)C(C)(C)SC)cc3)cn2)cc1` [Compound 340], the MIC MH 10720 turned out to be 0.4 mg/L (≈ 0.751 µM).

`O=C(N[C@@H](CO)C(=O)NO)c1ccc(C#Cc2ccc(CNC3CCC3)cc2)cc1` [Compound 147] yielded an MIC MH 10720 of 3.1 mg/L (≈ 7.61 µM).

Compound `COCCNCc1ccc(C#Cc2ccc(C(=O)N[C@H](C(=O)NO)C(C)(C)SC)cc2)cc1` [C.237] yielded an MIC MH 10720 of 0.2 mg/L (≈ 0.426 µM).

In a further assay the test system is Mannheimia haemolytica MH 12587 (1071, BRD field isolate, macrolide-resistance: erm+, E+). Kind of assay: MIC, broth-microdilution (CLSI VET01-A4), strain MH 12587. Format: cell-based. The following applies: Mannheimia haemolytica strain MH 12587, broth-microdilution; unit assumed. In short, it runs like this:
as §1
In turn, `CC(C)([C@H](NC(=O)c1ccc(C#Cc2ccc(CNCc3cccnc3)s2)cc1)C(=O)NO)S(C)(=O)=O` [C.319] displayed an MIC MH 12587 of 0.8 mg/L (≈ 1.48 µM).

Consider `COc1ccc(CNCc2ccc(C#Cc3ccc(C(=O)N[C@H](C(=O)NO)C(C)(C)SC)cc3)cn2)cc1` [Compound 340], for which the MIC MH 12587 turned out to be 3.1 mg/L (≈ 5.82 µM).

Consider `O=C(N[C@@H](CO)C(=O)NO)c1ccc(C#Cc2ccc(CNC3CCC3)cc2)cc1` [Compound 147], for which the MIC MH 12587 was found to be 6.3 mg/L (≈ 15.5 µM).

With `COCCNCc1ccc(C#Cc2ccc(C(=O)N[C@H](C(=O)NO)C(C)(C)SC)cc2)cc1` [C.237], the MIC MH 12587 worked out at 3.1 mg/L (≈ 6.6 µM).

The next assay deals with Mannheimia haemolytica MH 13065 (XB0446-6003.9, BRD field isolate). Briefly: MIC, broth-microdilution (CLSI VET01-A4), strain MH 13065. The format is cell-based. Particulars: Mannheimia haemolytica strain MH 13065, broth-microdilution; unit assumed. In short, it runs like this:
as §1
Consider `CC(C)([C@H](NC(=O)c1ccc(C#Cc2ccc(CNCc3cccnc3)s2)cc1)C(=O)NO)S(C)(=O)=O` [C.319], for which the MIC MH 13065 came out at 0.4 mg/L (≈ 0.74 µM).

The compound `COc1ccc(CNCc2ccc(C#Cc3ccc(C(=O)N[C@H](C(=O)NO)C(C)(C)SC)cc3)cn2)cc1` [Compound 340] came in with an MIC MH 13065 of 1.6 mg/L (≈ 3 µM).

In turn, `O=C(N[C@@H](CO)C(=O)NO)c1ccc(C#Cc2ccc(CNC3CCC3)cc2)cc1` [Compound 147] had an MIC MH 13065 of 6.3 mg/L (≈ 15.5 µM).

Consider `COCCNCc1ccc(C#Cc2ccc(C(=O)N[C@H](C(=O)NO)C(C)(C)SC)cc2)cc1` [C.237], for which the MIC MH 13065 is 1.6 mg/L (≈ 3.41 µM).

The next assay deals with Mannheimia haemolytica MH 13093 (XB0472-6014.1, BRD field isolate). Briefly: MIC, broth-microdilution (CLSI VET01-A4), strain MH 13093. Particulars: Mannheimia haemolytica strain MH 13093, broth-microdilution; unit assumed. Format: cell-based. Summed up:
as §1
Compound `CC(C)([C@H](NC(=O)c1ccc(C#Cc2ccc(CNCc3cccnc3)s2)cc1)C(=O)NO)S(C)(=O)=O` [C.319] had an MIC MH 13093 of 0.4 mg/L (≈ 0.74 µM).

Compound `COc1ccc(CNCc2ccc(C#Cc3ccc(C(=O)N[C@H](C(=O)NO)C(C)(C)SC)cc3)cn2)cc1` [Compound 340] had an MIC MH 13093 of 1.6 mg/L (≈ 3 µM).

`O=C(N[C@@H](CO)C(=O)NO)c1ccc(C#Cc2ccc(CNC3CCC3)cc2)cc1` [Compound 147] returned an MIC MH 13093 of 6.3 mg/L (≈ 15.5 µM).

On to `COCCNCc1ccc(C#Cc2ccc(C(=O)N[C@H](C(=O)NO)C(C)(C)SC)cc2)cc1` [C.237], for which the MIC MH 13093 turned out to be 1.6 mg/L (≈ 3.41 µM).

For another assay, the system named is Pasteurella multocida PM 6267 (P 2225 (L386), reference strain, mouse infection strain). Kind of assay: MIC, broth-microdilution (CLSI VET01-A4), strain PM 6267. The format is cell-based. Particulars: Pasteurella multocida strain PM 6267, broth-microdilution; unit assumed. In short, it runs like this:
as §1
Compound `CC(C)([C@H](NC(=O)c1ccc(C#Cc2ccc(CNCc3cccnc3)s2)cc1)C(=O)NO)S(C)(=O)=O` [C.319] displayed an MIC PM 6267 of 0.2 mg/L (≈ 0.37 µM).

`COc1ccc(CNCc2ccc(C#Cc3ccc(C(=O)N[C@H](C(=O)NO)C(C)(C)SC)cc3)cn2)cc1` [Compound 340] displayed an MIC PM 6267 of 1.6 mg/L (≈ 3 µM).

Consider `O=C(N[C@@H](CO)C(=O)NO)c1ccc(C#Cc2ccc(CNC3CCC3)cc2)cc1` [Compound 147], for which the MIC PM 6267 stood at 0.4 mg/L (≈ 0.982 µM).

`COCCNCc1ccc(C#Cc2ccc(C(=O)N[C@H](C(=O)NO)C(C)(C)SC)cc2)cc1` [C.237] gave an MIC PM 6267 of 0.2 mg/L (≈ 0.426 µM).

Another assay has as its system Pasteurella multocida PM 6391 (ATCC 43137, reference strain). Kind of assay: MIC, broth-microdilution (CLSI VET01-A4), strain PM 6391. Format: cell-based. Particulars: Pasteurella multocida strain PM 6391, broth-microdilution; unit assumed. As to the method: For example, representative compounds were tested against ***, Mannheimia haemolytica and Pasteurella multocida, using the conventional broth-dilution assay.
The Minimum inhibitory concentrations (MIC) of compounds according to the invention for a number of veterinary bacterial pathogens were determined by the broth-microdilution method according to CLSI document VET01-A4.
Microdilution trays containing a doubling dilution series of the test compound were used for the tests. The MIC results were interpreted according to the CLSI documents VET01-S3. The lowest concentration of compound at which no visible growth (i.e. no turbidity) detected by the unaided eye was recorded as the MIC.
`CC(C)([C@H](NC(=O)c1ccc(C#Cc2ccc(CNCc3cccnc3)s2)cc1)C(=O)NO)S(C)(=O)=O` [C.319] showed an MIC PM 6391 of no more than 0.1 mg/L.

In turn, `COc1ccc(CNCc2ccc(C#Cc3ccc(C(=O)N[C@H](C(=O)NO)C(C)(C)SC)cc3)cn2)cc1` [Compound 340] had an MIC PM 6391 of 1.6 mg/L (≈ 3 µM).

`O=C(N[C@@H](CO)C(=O)NO)c1ccc(C#Cc2ccc(CNC3CCC3)cc2)cc1` [Compound 147] gave an MIC PM 6391 of 1.6 mg/L (≈ 3.93 µM).

Regarding `COCCNCc1ccc(C#Cc2ccc(C(=O)N[C@H](C(=O)NO)C(C)(C)SC)cc2)cc1` [C.237], the MIC PM 6391 turned out to be 0.8 mg/L (≈ 1.7 µM).

In a further assay the test system is Pasteurella multocida PM 10775 (080130003051, BRD field isolate). Kind of assay: MIC, broth-microdilution (CLSI VET01-A4), strain PM 10775. The following applies: Pasteurella multocida strain PM 10775, broth-microdilution; unit assumed. The format is cell-based. Summed up: as §1
In turn, `CC(C)([C@H](NC(=O)c1ccc(C#Cc2ccc(CNCc3cccnc3)s2)cc1)C(=O)NO)S(C)(=O)=O` [C.319] yielded an MIC PM 10775 of no more than 0.1 mg/L.

In the case of `COc1ccc(CNCc2ccc(C#Cc3ccc(C(=O)N[C@H](C(=O)NO)C(C)(C)SC)cc3)cn2)cc1` [Compound 340], the MIC PM 10775 stood at 0.2 mg/L (≈ 0.375 µM).

In turn, `O=C(N[C@@H](CO)C(=O)NO)c1ccc(C#Cc2ccc(CNC3CCC3)cc2)cc1` [Compound 147] came in with an MIC PM 10775 of no more than 0.1 mg/L.

With `COCCNCc1ccc(C#Cc2ccc(C(=O)N[C@H](C(=O)NO)C(C)(C)SC)cc2)cc1` [C.237], the MIC PM 10775 was no more than 0.1 mg/L.

The subject of a further assay is Pasteurella multocida PM 12080 (IV102277-0093, BRD field isolate). Briefly: MIC, broth-microdilution (CLSI VET01-A4), strain PM 12080. Particulars: Pasteurella multocida strain PM 12080, broth-microdilution; unit assumed. The format is cell-based. In short, it runs like this: as §1
As for `CC(C)([C@H](NC(=O)c1ccc(C#Cc2ccc(CNCc3cccnc3)s2)cc1)C(=O)NO)S(C)(=O)=O` [C.319], the MIC PM 12080 is no more than 0.1 mg/L.

Take `COc1ccc(CNCc2ccc(C#Cc3ccc(C(=O)N[C@H](C(=O)NO)C(C)(C)SC)cc3)cn2)cc1` [Compound 340]: the MIC PM 12080 worked out at 0.8 mg/L (≈ 1.5 µM).

As for `O=C(N[C@@H](CO)C(=O)NO)c1ccc(C#Cc2ccc(CNC3CCC3)cc2)cc1` [Compound 147], the MIC PM 12080 worked out at 1.6 mg/L (≈ 3.93 µM).

`COCCNCc1ccc(C#Cc2ccc(C(=O)N[C@H](C(=O)NO)C(C)(C)SC)cc2)cc1` [C.237] yielded an MIC PM 12080 of 0.4 mg/L (≈ 0.852 µM).
